Results on two molecules are retold here after patent publication US11098053B2, “Enhanced osteogenic activity of daidzein analogs on human mesenchymal stem cells” (THE ADMINISTRATORS OF THE TULANE EDUCATIONAL FUND, priority 2013, dated 2021).

For series [1], the system named is BMSCs.
Series [2] deals with ASCs. Put plainly: Osteogenic differentiation of ASCs (alizarin red). The note with it: 14 days; for osteogenic potential of ASCs relative to vehicle, with fulvestrant: 1 μM + 100 nM fulvestrant; for osteogenic potential of ASCs relative to vehicle, with fulvestrant / osteogenic potential of ASCs relative to vehicle, inhibitor study, without fulvestrant: FIG. 12; for osteogenic potential of ASCs relative to vehicle, inhibitor study, without fulvestrant: 1 μM; for osteogenic differentiation (calcium deposition), fold relative to vehicle-treated ASCs: n=6 donors, estrogen 10 nM, others 1 μM.

The subject of series [3] is BMSCs. Put plainly: Osteogenic differentiation of BMSCs (alizarin red). The note with it: 14 days; for osteogenic potential of BMSCs relative to vehicle, with fulvestrant: 1 μM + 100 nM fulvestrant; for osteogenic potential of BMSCs relative to vehicle, with fulvestrant / osteogenic potential of BMSCs relative to vehicle, inhibitor study, without fulvestrant: FIG. 12; for osteogenic potential of BMSCs relative to vehicle, inhibitor study, without fulvestrant: 1 μM; for osteogenic differentiation (calcium deposition), fold relative to vehicle-treated BMSCs: n=6 donors, estrogen 10 nM, others 1 μM.

In series [4] the test system is Human bone marrow derived mesenchymal stem cells (MSCs). Briefly: Osteogenic differentiation of MSCs (Alizarin Red calcium deposition). The note with it: for osteogenic activity (structure-activity summary, in words): donor MSCs; for osteogenic activity (structure-activity summary, in words) / osteogenesis averaged over all three donors, relative to vehicle treated MSCs: 1 μM.

For `C=CCOc1ccc2c(=O)c(-c3ccc(O)cc3)coc2c1` [2l, 7-(Allyloxy)-3-(4-hydroxyphenyl)-4H-chromen-4-one], the “cytotoxicity at higher dosages” value in series [1] was “nor lead to cytotoxicity”. Moreover, in series [2], the “osteogenic potential of ASCs relative to vehicle, with fulvestrant” value is listed as 1.7 fold; the “osteogenic potential of ASCs relative to vehicle, inhibitor study, without fulvestrant” value is on record as 2.4 fold; the “osteogenic differentiation (calcium deposition), fold relative to vehicle-treated ASCs” value was 2.2 fold. Moreover, in series [3], the “osteogenic potential of BMSCs relative to vehicle, with fulvestrant” value turned out to be 1.5 fold; the “osteogenic potential of BMSCs relative to vehicle, inhibitor study, without fulvestrant” value is on record as 2.0 fold; the “osteogenic differentiation (calcium deposition), fold relative to vehicle-treated BMSCs” value was determined as 1.9 fold. For the same molecule, the “differentiation at day 7” value in series [4] (day 7) is listed as “enhanced differentiation at day 7”. Also, in series [4] (14 days), the “osteogenic activity (structure-activity summary, in words)” value is listed as “marked enhancement” and the “osteogenesis averaged over all three donors, relative to vehicle treated MSCs” value worked out at 2.0±0.18. Further, the IC50 in series [4] (read-out: IC50 averaged among the three donors, mean of three donors, 14 days) came out at 138 nM. In series [4] (screen, MSCs from one donor (Donor 1), analogs and daidzein 1 μM, estrogen 10 nM, 14 days), the “induction category of osteogenic differentiation (no, low, high induction)” value was “high inducers”.

As for `O=c1c(-c2ccc(O)cc2)coc2cc(OC3CCCC3)ccc12` [2g, 7-Cyclopentyloxy-3-(4-hydroxyphenyl)-4H-chromen-4-one], the “cytotoxicity at higher dosages” value in series [1] is on record as “nor lead to cytotoxicity”. For the same molecule, in series [2], the “osteogenic potential of ASCs relative to vehicle, with fulvestrant” value was 0.9 fold; the “osteogenic potential of ASCs relative to vehicle, inhibitor study, without fulvestrant” value worked out at 2.0 fold; the “osteogenic differentiation (calcium deposition), fold relative to vehicle-treated ASCs” value was 2.0 fold. In series [3], the “osteogenic potential of BMSCs relative to vehicle, with fulvestrant” value was 0.8 fold; the “osteogenic potential of BMSCs relative to vehicle, inhibitor study, without fulvestrant” value is given as 1.9 fold; the “osteogenic differentiation (calcium deposition), fold relative to vehicle-treated BMSCs” value turned out to be 1.6 fold. In addition, in series [4] (14 days), the “osteogenic activity (structure-activity summary, in words)” value is on record as “modest osteogenic activity” and the “osteogenesis averaged over all three donors, relative to vehicle treated MSCs” value is listed as 2.0±0.64.

In general, IC50 refers to the concentration that gives 50% inhibition.
